Where two headings read alike, the source gives them in different places. Marks after values point to notes of the source that are not given here.
Experiments:
preclinical models = system: preclinical models; design: method as in PMID 29774094, PMID 33273059; conditions: cited from earlier work
[1] = human, in vivo
Procedure: (§1) Serial plasma samples were collected for PK analysis on days 1 and 4 of cycle 1 before the morning dose; at 1, 2, 4, 6, and between 8−12 h after the morning dose. Additional samples were taken before the morning dose and 1 and 4 h after the morning dose on days 1 and 4 of cycle 2 and days 1 and 4 of cycle 5. PK parameters were determined using standard noncompartmental methods with Phoenix WinNonlin v8.1 (Certara, Princeton, NJ). Area under the plasma concentration−time curve (AUC) was calculated using the linear up/log down trapezoidal rule.

advanced solid tumors = conditions: MK-8353 300−400 mg twice daily, 3/15 patients; cited from earlier work
[2] = system: human cancer xenograft models; conditions: various human cancer xenograft models; cited from earlier work
clinical = conditions: human, in vivo, Observed median time of maximum plasma concentration, range over dose levels
Procedure: as §1

[3] = system: patients with advanced solid tumors; conditions: cited from earlier work
[4] = Plasma pharmacokinetics after oral administration of the combination (noncompartmental); conditions: for AUC0−12 / AUC0−last / Cmax / tlast / tmax: plasma; for AUC0−12 / AUC0−last / Cmax: geometric mean (% geometric CV); for tlast / tmax: median (range)
Procedure: as §1

advanced cancers = system: advanced cancers; design: method as in PMID 25385055; conditions: selumetinib monotherapy, patients with advanced cancers; cited from earlier work
patients = system: patients; design: method as in PMID 30681641; conditions: cited from earlier work
[5] = MK-8353 400 mg twice daily (MTD)
[6] = MK-8353 400 mg twice daily, n = 7
[7] = MK-8353 800 mg twice daily, 6 patients
[8] = cycle 1 Day 1, MK-8353 50 mg + selumetinib 25 mg oral BID
[9] = cycle 1 Day 1, MK-8353 100 mg + selumetinib 50 mg oral BID
[10] = cycle 1 Day 1, MK-8353 150 mg + selumetinib 75 mg oral BID
[11] = cycle 1 Day 4, MK-8353 50 mg + selumetinib 25 mg oral BID
[12] = cycle 1 Day 4, MK-8353 100 mg + selumetinib 50 mg oral BID
[13] = cycle 1 Day 4, MK-8353 150 mg + selumetinib 75 mg oral BID

Cc1cccc(CN2C(=O)c3cc(-c4nc(Nc5ccnn5C)ncc4C)cn3C[C@@H]2C)n1 [AZ6197]
Antitumor activity of ERK inhibitor plus selumetinib versus each agent alone (preclinical models): greater antitumor activity versus each agent alone

COC[C@H]1Cn2cc(-c3nc(Nc4ccnn4C)ncc3C)nc2C(=O)N1Cc1ccc(F)c(F)c1 [AZD0364]
Antitumor activity of ERK inhibitor plus selumetinib versus each agent alone (preclinical models): greater antitumor activity versus each agent alone

CS[C@@]1(C(=O)Nc2ccc3[nH]nc(-c4ccc(OC(C)C)nc4)c3c2)CCN(CC(=O)N2CC=C(c3ccc(-c4ncn(C)n4)cc3)CC2)C1 [MK-8353]
Accumulation at steady state [1]: ≤ 2 fold
Patients with a partial response (advanced solid tumors): 20%
Antitumor activity [2]: Antitumor activity of MK-8353 was demonstrated
tmax (clinical; cycle 1, all dose levels): 1.97 to 2.05 h
Eye disorders [3, 5]: no eye disorders occurred
Macular rash [3, 5]: 1 n
Maculopapular rash [3, 5]: 3 n
Pruritus [3, 5]: 1 n
Urticaria [3, 5]: 1 n
Diarrhea [3, 6]: 2 n
Dyspepsia [3, 6]: 2 n
Nausea [3, 6]: 4 n
Vomiting [3, 6]: 2 n
Safety and tolerability ([3]; MK-8353 400 mg twice daily): safe and well tolerated
Blurred vision [3, 7]: 2 n
Visual impairment [3, 7]: 3 n
Vitreous floaters [3, 7]: 1 n
MTD of MK-8353 monotherapy [3]: 400 mg twice daily

O=C(NOCCO)c1cc2[nH]cnc2c(F)c1Nc1ccc(Br)cc1Cl [desmethyl selumetinib]
Geometric mean minimum plasma concentration (Ctrough) ([4]; from lowest to highest dose): 8 to 26 nM
AUC0−12 [4, 8]: 0.161 (52.4) h∙µmol/L
AUC0−last [4, 8]: 0.144 (47.7) h∙µmol/L
Cmax [4, 8]: 43.7 nM
tlast [4, 8]: 8.02 (7.83–8.07) h
tmax [4, 8]: 1.88 (0.92–2.05) h
AUC0−12 [4, 9]: 0.344 (73.5)^l h∙µmol/L
AUC0−last [4, 9]: 0.261 (118.6) h∙µmol/L
Cmax [4, 9]: 93.5 nM
tlast [4, 9]: 8.00 (3.92–11.33) h
tmax [4, 9]: 1.02 (0.88–2.08) h
AUC0−12 [4, 10]: 0.690 (56.3)^j h∙µmol/L
AUC0−last [4, 10]: 0.547 (61.3) h∙µmol/L
Cmax [4, 10]: 158 nM
tlast [4, 10]: 8.00 (7.83–8.37) h
tmax [4, 10]: 1.92 (0.83–4.00) h
AUC0−12 [4, 11]: 0.230 (63.5) h∙µmol/L
AUC0−last [4, 11]: 0.202 (60.5) h∙µmol/L
Cmax [4, 11]: 56.3 nM
tlast [4, 11]: 8.05 (7.97–8.08) h
tmax [4, 11]: 1.88 (1.87–2.00) h
AUC0−12 [4, 12]: 0.386 (49.6)^k h∙µmol/L
AUC0−last [4, 12]: 0.267 (102.1) h∙µmol/L
Cmax [4, 12]: 72.4 nM
tlast [4, 12]: 8.00 (5.83–8.33) h
tmax [4, 12]: 1.96 (0.95–3.97) h
AUC0−12 [4, 13]: 0.681 (35.7)^k h∙µmol/L
AUC0−last [4, 13]: 0.486 (87.7)^f h∙µmol/L
Cmax [4, 13]: 97.7 nM
tlast [4, 13]: 8.00 (0.00–8.05)^h
tmax [4, 13]: 1.07 (0.00–5.92)^h
Accumulation at steady state ([4]; twice daily dosing): ≤ 2 fold

Cn1cnc2c(F)c(Nc3ccc(Br)cc3Cl)c(C(=O)NOCCO)cc21 [selumetinib]
Accumulation at steady state [1]: ≤ 2 fold
Geometric mean minimum plasma concentration (Ctrough) [1]: 0.101−0.456 µmol/L
Time of Cmax after dosing [1]: ≤ 2 h
Objective response rates (advanced cancers): up to 15%
Rates of treatment-related eye disorders (patients; selumetinib combination therapy with other agents (chemotherapies, targeted therapies)): up to 40%
Rates of treatment-related eye disorders (patients; selumetinib monotherapy, previous studies): 10−20%
tmax (clinical): 1 to 1.96 h

From paper PMC10289957 (Investigational New Drugs, 2023)
